Read-outs that look alike come from different tables or passages of the source.
Biological target: Recombinant human cathepsin S (CatS) (Homo sapiens, UniProt P25774)
Experiment: Recombinant human cathepsin S (CatS) inhibition assay, fluorogenic substrate Z-Valine-Valine-Arginine-AMC;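 further: Baculovirus-expressed CatS in pH 5.0 sodium acetate buffer with DTT and NaCl, fluorescence read each minute over 20 min, inhibition derived from rate slope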

Sequence of Recombinant human cathepsin S (CatS) (P25774 115-331): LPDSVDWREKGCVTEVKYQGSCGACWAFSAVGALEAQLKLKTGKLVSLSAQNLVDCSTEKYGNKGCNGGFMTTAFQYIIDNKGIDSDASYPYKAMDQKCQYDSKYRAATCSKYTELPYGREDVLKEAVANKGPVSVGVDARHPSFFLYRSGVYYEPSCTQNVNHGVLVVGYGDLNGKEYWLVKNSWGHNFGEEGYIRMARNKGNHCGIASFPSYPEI

SMILES | IC50 (CatS IC50) | IC50
CS(=O)(=O)N1CCc2c(c(-c3ccc(Cl)c(CCc4cccc(CNCc5ccccc5)c4)c3)nn2CCCN2CCOCC2)C1 [Example 535, 1-[3-(2-{2-Chloro-5-[5-(methylsulfonyl)-1-(3-morpholin-4-ylpropyl)-4,5,6,7-tetrahydro-1H-pyrazolo[4,3-c]pyridin-3-yl]phenyl}ethyl)phenyl]-N-(phenylmethyl)methanamine] | 640 nM | 
C[C@@H]1COCCN1CCCn1nc(-c2ccc(Cl)c(C#Cc3ccc(CNCc4ccc(Cl)cc4)cc3)c2)c2c1CCN(S(C)(=O)=O)C2 [Example 536, 1-[4-({2-Chloro-5-[1-{3-[(3R)-3-methylmorpholin-4-yl]propyl}-5-(methylsulfonyl)-4,5,6,7-tetrahydro-1H-pyrazolo[4,3-c]pyridin-3-yl]phenyl}ethynyl)phenyl]-N-[(4-chlorophenyl)methyl]methanamine] |  | 200 nM
CS(=O)(=O)N1CCc2c(c(-c3ccc(Cl)c(C#Cc4ccc(CNCc5ccc(Cl)cc5)cc4)c3)nn2CCCN2CC[S+]([O-])CC2)C1 [Example 537, 1-{4-[(2-Chloro-5-{5-(methylsulfonyl)-1-[3-(1-oxidothiomorpholin-4-yl)propyl]-4,5,6,7-tetrahydro-1H-pyrazolo[4,3-c]pyridin-3-yl}phenyl)ethynyl]phenyl}-N-[(4-chlorophenyl)methyl]methanamine] | 280 nM | 
COc1ccc(CNCc2ccc(C#Cc3cc(-c4nn(CCCN5CCSCC5)c5c4CN(C(N)=O)CC5)ccc3Cl)cc2)cc1 [Example 538, 3-[4-Chloro-3-({4-[({[4-(methyloxy)phenyl]methyl}amino)methyl]phenyl}ethynyl)phenyl]-1-(3-thiomorpholin-4-ylpropyl)-1,4,6,7-tetrahydro-5H-pyrazolo[4,3-c]pyridine-5-carboxamide] | 110 nM | 
C[C@H]1COCCN1CCCn1nc(-c2ccc(Cl)c(C#Cc3ccc(F)c(CNCc4ccccc4)c3)c2)c2c1CCN(S(C)(=O)=O)C2 [Example 539, 1-[5-({2-Chloro-5-[1-{3-[(3S)-3-methylmorpholin-4-yl]propyl}-5-(methylsulfonyl)-4,5,6,7-tetrahydro-1H-pyrazolo[4,3-c]pyridin-3-yl]phenyl}ethynyl)-2-fluorophenyl]-N-(phenylmethyl)methanamine] | 210 nM | 
COc1ccc(C#Cc2cc(-c3nn(CCCN4CCOCC4)c4c3CN(S(C)(=O)=O)CC4)ccc2Cl)cc1CNCc1ccccc1 [Example 540, 1-[5-({2-Chloro-5-[5-(methylsulfonyl)-1-(3-morpholin-4-ylpropyl)-4,5,6,7-tetrahydro-1H-pyrazolo[4,3-c]pyridin-3-yl]phenyl}ethynyl)-2-(methyloxy)phenyl]-N-(phenylmethyl)methanamine] |  | 140 nM
CS(=O)(=O)N1CCc2c(c(-c3ccc(Cl)c(C#Cc4ccc5c(c4)CN[C@@H](C(=O)N4CCOCC4)C5)c3)nn2CCCN2CCOCC2)C1 [Example 541, (3R)-7-({2-Chloro-5-[5-(methylsulfonyl)-1-(3-morpholin-4-ylpropyl)-4,5,6,7-tetrahydro-1H-pyrazolo[4,3-c]pyridin-3-yl]phenyl}ethynyl)-3-(morpholin-4-ylcarbonyl)-1,2,3,4-tetrahydroisoquinoline] | 960 nM | 
NC(=O)N1CCc2c(c(-c3ccc(Cl)c(C#Cc4ccc(CNCc5ccccc5F)cc4)c3)nn2CCCN2CCSCC2)C1 [Example 542, 3-(4-Chloro-3-{[4-({[(2-fluorophenyl)methyl]amino}methyl)phenyl]ethynyl}phenyl)-1-(3-thiomorpholin-4-ylpropyl)-1,4,6,7-tetrahydro-5H-pyrazolo[4,3-c]pyridine-5-carboxamide] | 180 nM | 
CS(=O)(=O)N1CCc2c(c(-c3ccc(Cl)c(C#Cc4ccc(CNCc5ccccc5)c(Cl)c4)c3)nn2CCCN2CCOCC2)C1 [Example 545, 1-[2-Chloro-4-({2-chloro-5-[5-(methylsulfonyl)-1-(3-morpholin-4-ylpropyl)-4,5,6,7-tetrahydro-1H-pyrazolo[4,3-c]pyridin-3-yl]phenyl}ethynyl)phenyl]-N-(phenylmethyl)methanamine] | 270 nM | 
CS(=O)(=O)N1CCc2c(c(-c3ccc(Cl)c(C#Cc4ccc(CNCc5ccc(Cl)cc5)c(Cl)c4)c3)nn2CCCN2CCOCC2)C1 [Example 546, 1-[2-Chloro-4-({2-chloro-5-[5-(methylsulfonyl)-1-(3-morpholin-4-ylpropyl)-4,5,6,7-tetrahydro-1H-pyrazolo[4,3-c]pyridin-3-yl]phenyl}ethynyl)phenyl]-N-[(4-chlorophenyl)methyl]methanamine] | 300 nM | 
NC(=O)N1CCc2c(c(-c3ccc(Cl)c(C#Cc4ccc(C(=O)NCc5ccc(Cl)cc5)cc4)c3)nn2CCCN2CCSCC2)C1 [Example 547, 3-(4-Chloro-3-{[4-({[(4-chlorophenyl)methyl]amino}carbonyl)phenyl]ethynyl}phenyl)-1-(3-thiomorpholin-4-ylpropyl)-1,4,6,7-tetrahydro-5H-pyrazolo[4,3-c]pyridine-5-carboxamide] |  | 120 nM
NC(=O)N1CCc2c(c(-c3ccc(Cl)c(C#Cc4ccc(COCC5CNCCO5)cc4)c3)nn2CCCN2CCSCC2)C1 (centres unmarked) [Example 548, 3-{4-Chloro-3-[(4-{[(morpholin-2-ylmethyl)oxy]methyl}phenyl)ethynyl]phenyl}-1-(3-thiomorpholin-4-ylpropyl)-1,4,6,7-tetrahydro-5H-pyrazolo[4,3-c]pyridine-5-carboxamide] |  | 120 nM
NC(=O)N1CCc2c(c(-c3ccc(Cl)c(C#Cc4ccc(CN5CCC(N6C[C@H](O)CC6=O)CC5)cc4)c3)nn2CCCN2CCSCC2)C1 [Example 549, 3-(4-Chloro-3-{[4-({4-[(4R)-4-hydroxy-2-oxopyrrolidin-1-yl]piperidin-1-yl}methyl)phenyl]ethynyl}phenyl)-1-(3-thiomorpholin-4-ylpropyl)-1,4,6,7-tetrahydro-5H-pyrazolo[4,3-c]pyridine-5-carboxamide] | 1010 nM | 
CSc1ccc(CNCc2ccc(C#Cc3cc(-c4nn(CCCN5CCSCC5)c5c4CN(C(N)=O)CC5)ccc3Cl)cc2)cc1 [Example 550, 3-[4-Chloro-3-({4-[({[4-(methylsulfanyl)phenyl]methyl}amino)methyl]phenyl}ethynyl)phenyl]-1-(3-thiomorpholin-4-ylpropyl)-1,4,6,7-tetrahydro-5H-pyrazolo[4,3-c]pyridine-5-carboxamide] | 100 nM | 
NC(=O)N1CCc2c(c(-c3ccc(Cl)c(C#Cc4ccc(CNCc5ccc(N)cc5)cc4)c3)nn2CCCN2CCSCC2)C1 [Example 551, 3-(3-{[4-({[(4-Aminophenyl)methyl]amino}methyl)phenyl]ethynyl}-4-chlorophenyl)-1-(3-thiomorpholin-4-ylpropyl)-1,4,6,7-tetrahydro-5H-pyrazolo[4,3-c]pyridine-5-carboxamide] | 100 nM | 
NC(=O)N1CCc2c(c(-c3ccc(Cl)c(C#Cc4ccc(C(=O)N5CC[C@@H](O)C5)cc4)c3)nn2CCCN2CCSCC2)C1 [Example 552, 3-{4-Chloro-3-[(4-{[(3R)-3-hydroxypyrrolidin-1-yl]carbonyl}phenyl)ethynyl]phenyl}-1-(3-thiomorpholin-4-ylpropyl)-1,4,6,7-tetrahydro-5H-pyrazolo[4,3-c]pyridine-5-carboxamide] | 500 nM | 
C[C@H]1COCCN1CCCn1nc(-c2ccc(Cl)c(C#Cc3ccc(Cl)c(CNCC(=O)O)c3)c2)c2c1CCNC2 [Example 553, N-[(2-Chloro-5-{[2-chloro-5-(1-{3-[(3S)-3-methylmorpholin-4-yl]propyl}-4,5,6,7-tetrahydro-1H-pyrazolo[4,3-c]pyridin-3-yl)phenyl]ethynyl}phenyl)methyl]glycine] |  | 450 nM
NC(=O)C(=O)N1CCc2c(c(-c3ccc(Cl)c(C#Cc4ccc(Cl)c(C(=O)NCCCO)c4)c3)nn2CCCN2CCSCC2)C1 [Example 554, 5-[(5-{5-[Amino(oxo)acetyl]-1-(3-thiomorpholin-4-ylpropyl)-4,5,6,7-tetrahydro-1H-pyrazolo[4,3-c]pyridin-3-yl}-2-chlorophenyl)ethynyl]-2-chloro-N-(3-hydroxypropyl)benzamide] |  | 20 nM
NC(=O)N1CCc2c(c(-c3ccc(Cl)c(C#Cc4ccc(Cl)c(C(=O)NCCCO)c4)c3)nn2CCCN2CCSCC2)C1 [Example 555, 3-[4-Chloro-3-({4-chloro-3-[(3-hydroxypropyl)carbamoyl]phenyl}ethynyl)phenyl]-1-(3-thiomorpholin-4-ylpropyl)-1,4,6,7-tetrahydro-5H-pyrazolo[4,3-c]pyridine-5-carboxamide] |  | 20 nM
C[C@H]1COCCN1CCCn1nc(-c2ccc(Cl)c(C#Cc3ccc(Cl)c(C(=O)NC[C@@H]4CCCN4)c3)c2)c2c1CCN(C(=O)C(N)=O)C2 [Example 556, 5-{[5-(5-[Amino(oxo)acetyl]-1-{3-[(3S)-3-methylmorpholin-4-yl]propyl}-4,5,6,7-tetrahydro-1H-pyrazolo[4,3-c]pyridin-3-yl)-2-chlorophenyl]ethynyl}-2-chloro-N-[(2S)-pyrrolidin-2-ylmethyl]benzamide] |  | 30 nM
NC(=O)C(=O)N1CCc2c(c(-c3ccc(Cl)c(C#Cc4ccc(Cl)c(C(=O)NC[C@@H]5CCCN5)c4)c3)nn2CCCN2CCSCC2)C1 [Example 557, 5-[(5-{5-[Amino(oxo)acetyl]-1-(3-thiomorpholin-4-ylpropyl)-4,5,6,7-tetrahydro-1H-pyrazolo[4,3-c]pyridin-3-yl}-2-chlorophenyl)ethynyl]-2-chloro-N-[(2S)-pyrrolidin-2-ylmethyl]benzamide] |  | 30 nM
NC(=O)N1CCc2c(c(-c3ccc(Cl)c(C#Cc4ccc(Cl)c(C(=O)NC[C@@H]5CCCN5)c4)c3)nn2CCCN2CCSCC2)C1 [Example 558, 3-{4-Chloro-3-[(4-chloro-3-{[(2S)-pyrrolidin-2-ylmethyl]carbamoyl}phenyl)ethynyl]phenyl}-1-(3-thiomorpholin-4-ylpropyl)-1,4,6,7-tetrahydro-5H-pyrazolo[4,3-c]pyridine-5-carboxamide] |  | 30 nM
C[C@H]1COCCN1CCCn1nc(-c2ccc(Cl)c(C#Cc3ccc(Cl)c(COC4CCN(C(=O)OC(C)(C)C)C4)c3)c2)c2c1CCN(C(=O)C(N)=O)C2 (stereo partly drawn) [Example 559, tert-Butyl 3-[(5-{[5-(5-[amino(oxo)acetyl]-1-{3-[(3S)-3-methylmorpholin-4-yl]propyl}-4,5,6,7-tetrahydro-1H-pyrazolo[4,3-c]pyridin-3-yl)-2-chlorophenyl]ethynyl}-2-chlorobenzyl)oxy]pyrrolidine-1-carboxylate] |  | 100 nM

Source: patent US20080200454A1, “CARBON-LINKED TETRAHYDRO-PYRAZOLO-PYRIDINE MODULATORS OF CATHEPSIN S” (priority 2007, published 2008)
